In ChEMBL document CHEMBL4800728, “Data for DCP probe JNJ-54119936” (2021):
Activity calls are given as the source filed them. No cut-off for these calls is given here.

Legend:
[1] = molecular target: Nuclear receptor ROR-gamma (Homo sapiens, UniProt P51449); assay: Human whole blood assay; assay type: tissue-based; design: compound concentration 10 uM
[2] = molecular target: Serine/threonine-protein kinase Chk2 (Homo sapiens) (UniProt O96017); assay: CHK2 Invitrogen kinase panel; conditions: Compound concentration 10.0 uM
[3] = molecular target: Glycogen synthase kinase-3 alpha (Homo sapiens) (UniProt P49840); assay: GSK3alpha Invitrogen kinase panel; conditions: Compound concentration 10.0 uM
[4] = molecular target: Glycogen synthase kinase-3 beta (Homo sapiens) (UniProt P49841); assay: GSK3beta Invitrogen kinase panel; conditions: Compound concentration 10.0 uM
[5] = molecular target: Insulin-like growth factor 1 receptor (Homo sapiens) (UniProt P08069); assay: IGF-1R Invitrogen kinase panel; conditions: Compound concentration 10.0 uM
[6] = molecular target: Insulin receptor (Homo sapiens) (UniProt P06213); assay: INSR Invitrogen kinase panel; conditions: Compound concentration 10.0 uM
Insulin receptor (Homo sapiens), sequence (P06213 28-758 limits assumed): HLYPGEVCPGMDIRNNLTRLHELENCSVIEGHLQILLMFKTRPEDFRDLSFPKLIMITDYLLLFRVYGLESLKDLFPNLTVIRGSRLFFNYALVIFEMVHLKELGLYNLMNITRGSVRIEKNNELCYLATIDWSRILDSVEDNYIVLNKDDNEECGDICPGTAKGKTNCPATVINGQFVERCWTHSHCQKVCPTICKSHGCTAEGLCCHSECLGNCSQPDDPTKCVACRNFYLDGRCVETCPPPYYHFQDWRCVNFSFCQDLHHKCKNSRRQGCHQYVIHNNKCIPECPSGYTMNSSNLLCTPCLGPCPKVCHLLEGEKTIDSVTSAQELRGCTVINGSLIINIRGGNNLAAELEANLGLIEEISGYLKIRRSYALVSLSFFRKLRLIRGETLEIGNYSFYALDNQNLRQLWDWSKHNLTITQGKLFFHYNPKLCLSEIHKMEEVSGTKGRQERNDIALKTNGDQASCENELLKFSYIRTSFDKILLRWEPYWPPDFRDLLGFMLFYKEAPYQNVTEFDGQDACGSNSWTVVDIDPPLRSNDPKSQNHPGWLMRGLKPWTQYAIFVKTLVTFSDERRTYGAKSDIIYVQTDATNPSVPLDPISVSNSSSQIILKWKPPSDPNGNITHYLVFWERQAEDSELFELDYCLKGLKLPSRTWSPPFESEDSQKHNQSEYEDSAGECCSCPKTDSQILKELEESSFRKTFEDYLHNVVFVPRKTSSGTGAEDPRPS
Insulin receptor (Homo sapiens), sequence (P06213 763-1382 limits assumed): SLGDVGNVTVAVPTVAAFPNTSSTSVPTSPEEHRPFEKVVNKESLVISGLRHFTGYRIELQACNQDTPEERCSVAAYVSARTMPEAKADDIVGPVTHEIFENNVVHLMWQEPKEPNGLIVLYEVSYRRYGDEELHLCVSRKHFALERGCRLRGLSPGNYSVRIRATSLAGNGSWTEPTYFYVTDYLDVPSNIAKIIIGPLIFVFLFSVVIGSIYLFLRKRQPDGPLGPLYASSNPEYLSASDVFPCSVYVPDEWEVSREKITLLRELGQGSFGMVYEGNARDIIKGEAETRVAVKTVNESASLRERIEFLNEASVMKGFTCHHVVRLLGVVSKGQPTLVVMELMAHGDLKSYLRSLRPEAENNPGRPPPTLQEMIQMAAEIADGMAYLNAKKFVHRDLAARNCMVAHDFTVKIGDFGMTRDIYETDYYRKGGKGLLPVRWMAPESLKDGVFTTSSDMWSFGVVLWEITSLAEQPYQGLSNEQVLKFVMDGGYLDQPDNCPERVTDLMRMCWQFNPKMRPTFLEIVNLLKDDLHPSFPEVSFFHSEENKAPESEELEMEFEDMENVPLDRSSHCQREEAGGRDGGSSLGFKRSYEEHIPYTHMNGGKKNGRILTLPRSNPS

[7] = molecular target: Tyrosine-protein kinase JAK2 (Homo sapiens) (UniProt O60674); assay: JAK2 Invitrogen kinase panel; conditions: Compound concentration 10.0 uM
[8] = molecular target: Mitogen-activated protein kinase 3 (Homo sapiens) (UniProt P27361); assay: ERK1 Invitrogen kinase panel; conditions: Compound concentration 10.0 uM
[9] = molecular target: NT-3 growth factor receptor (Homo sapiens) (UniProt Q16288); assay: TrkC Invitrogen kinase panel; conditions: Compound concentration 10.0 uM
NT-3 growth factor receptor (Homo sapiens), sequence (Q16288 32-839 limits assumed): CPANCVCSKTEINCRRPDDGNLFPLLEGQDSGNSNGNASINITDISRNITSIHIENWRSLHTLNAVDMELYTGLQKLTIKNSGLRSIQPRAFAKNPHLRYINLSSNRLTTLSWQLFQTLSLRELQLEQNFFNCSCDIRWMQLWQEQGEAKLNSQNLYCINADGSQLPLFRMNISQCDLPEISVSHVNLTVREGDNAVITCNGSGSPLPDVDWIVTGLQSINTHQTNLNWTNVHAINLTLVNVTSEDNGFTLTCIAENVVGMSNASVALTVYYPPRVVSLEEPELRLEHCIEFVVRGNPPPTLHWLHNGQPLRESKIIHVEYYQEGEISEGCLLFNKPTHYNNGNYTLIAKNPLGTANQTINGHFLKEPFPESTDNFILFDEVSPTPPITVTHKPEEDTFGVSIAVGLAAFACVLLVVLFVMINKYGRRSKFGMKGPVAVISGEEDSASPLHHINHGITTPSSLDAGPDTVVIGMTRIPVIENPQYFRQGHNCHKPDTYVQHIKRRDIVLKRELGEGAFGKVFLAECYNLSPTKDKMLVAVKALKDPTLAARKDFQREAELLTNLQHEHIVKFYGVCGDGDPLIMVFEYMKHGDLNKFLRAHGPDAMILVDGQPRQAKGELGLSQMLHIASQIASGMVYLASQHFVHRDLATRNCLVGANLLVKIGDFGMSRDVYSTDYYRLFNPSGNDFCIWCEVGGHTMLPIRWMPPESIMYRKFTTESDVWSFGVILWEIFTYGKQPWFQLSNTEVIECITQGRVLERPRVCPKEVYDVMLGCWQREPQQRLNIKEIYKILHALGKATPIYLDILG

[10] = molecular target: Protein kinase C beta type (Homo sapiens) (UniProt P05771); assay: PKCbetaI Invitrogen kinase panel; conditions: Compound concentration 10.0 uM
Protein kinase C beta type (Homo sapiens), sequence (P05771 2-671 limits assumed): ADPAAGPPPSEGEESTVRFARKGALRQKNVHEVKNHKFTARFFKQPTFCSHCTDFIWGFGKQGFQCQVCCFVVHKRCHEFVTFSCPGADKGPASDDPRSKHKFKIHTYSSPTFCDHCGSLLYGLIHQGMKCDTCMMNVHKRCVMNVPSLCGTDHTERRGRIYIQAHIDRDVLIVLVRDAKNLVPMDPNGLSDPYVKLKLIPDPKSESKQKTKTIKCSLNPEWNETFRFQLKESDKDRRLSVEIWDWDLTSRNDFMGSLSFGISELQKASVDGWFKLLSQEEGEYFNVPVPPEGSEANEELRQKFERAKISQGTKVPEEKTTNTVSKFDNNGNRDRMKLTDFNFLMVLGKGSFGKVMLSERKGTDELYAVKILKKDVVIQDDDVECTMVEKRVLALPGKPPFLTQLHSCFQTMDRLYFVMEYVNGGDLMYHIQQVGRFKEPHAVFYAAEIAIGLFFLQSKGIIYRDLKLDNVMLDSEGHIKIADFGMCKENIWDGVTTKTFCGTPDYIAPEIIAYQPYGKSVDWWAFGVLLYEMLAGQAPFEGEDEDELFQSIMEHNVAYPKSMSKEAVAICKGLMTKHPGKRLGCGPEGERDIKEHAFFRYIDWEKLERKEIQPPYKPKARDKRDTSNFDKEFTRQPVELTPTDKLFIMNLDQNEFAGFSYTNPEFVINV

[11] = molecular target: Ribosomal protein S6 kinase alpha-2 (Homo sapiens) (UniProt Q15349); assay: Rsk3 Invitrogen kinase panel; conditions: Compound concentration 10.0 uM
[12] = molecular target: Peroxisome proliferator-activated receptor alpha (Homo sapiens) (UniProt Q07869); assay: (§1) PPARalpha In-house nuclear receptor screen; conditions: Compound concentration 3.0 uM
Peroxisome proliferator-activated receptor alpha (Homo sapiens), sequence (Q07869 whole entry): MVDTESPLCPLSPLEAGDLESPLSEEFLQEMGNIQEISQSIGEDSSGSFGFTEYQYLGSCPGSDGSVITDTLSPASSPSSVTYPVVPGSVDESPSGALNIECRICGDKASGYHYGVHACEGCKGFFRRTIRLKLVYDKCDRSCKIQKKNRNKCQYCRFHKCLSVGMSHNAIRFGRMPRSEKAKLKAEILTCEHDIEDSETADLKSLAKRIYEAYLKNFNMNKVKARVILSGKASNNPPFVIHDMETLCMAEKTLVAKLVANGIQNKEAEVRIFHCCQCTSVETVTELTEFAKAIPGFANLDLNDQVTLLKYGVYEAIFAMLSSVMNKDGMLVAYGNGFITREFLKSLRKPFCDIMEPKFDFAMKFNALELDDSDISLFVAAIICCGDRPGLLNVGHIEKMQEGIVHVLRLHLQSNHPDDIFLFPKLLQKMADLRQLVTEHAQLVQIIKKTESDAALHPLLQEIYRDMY

[13] = molecular target: Peroxisome proliferator-activated receptor alpha (Homo sapiens, UniProt Q07869); assay: as §1
Peroxisome proliferator-activated receptor alpha, sequence (Q07869 whole entry): as above

[14] = molecular target: T1, Glucocorticoid receptor (Homo sapiens) (UniProt P04150); assay: (§2) GR In-house nuclear receptor screen; conditions: Compound concentration 3.0 uM
T1 sequence (whole entry): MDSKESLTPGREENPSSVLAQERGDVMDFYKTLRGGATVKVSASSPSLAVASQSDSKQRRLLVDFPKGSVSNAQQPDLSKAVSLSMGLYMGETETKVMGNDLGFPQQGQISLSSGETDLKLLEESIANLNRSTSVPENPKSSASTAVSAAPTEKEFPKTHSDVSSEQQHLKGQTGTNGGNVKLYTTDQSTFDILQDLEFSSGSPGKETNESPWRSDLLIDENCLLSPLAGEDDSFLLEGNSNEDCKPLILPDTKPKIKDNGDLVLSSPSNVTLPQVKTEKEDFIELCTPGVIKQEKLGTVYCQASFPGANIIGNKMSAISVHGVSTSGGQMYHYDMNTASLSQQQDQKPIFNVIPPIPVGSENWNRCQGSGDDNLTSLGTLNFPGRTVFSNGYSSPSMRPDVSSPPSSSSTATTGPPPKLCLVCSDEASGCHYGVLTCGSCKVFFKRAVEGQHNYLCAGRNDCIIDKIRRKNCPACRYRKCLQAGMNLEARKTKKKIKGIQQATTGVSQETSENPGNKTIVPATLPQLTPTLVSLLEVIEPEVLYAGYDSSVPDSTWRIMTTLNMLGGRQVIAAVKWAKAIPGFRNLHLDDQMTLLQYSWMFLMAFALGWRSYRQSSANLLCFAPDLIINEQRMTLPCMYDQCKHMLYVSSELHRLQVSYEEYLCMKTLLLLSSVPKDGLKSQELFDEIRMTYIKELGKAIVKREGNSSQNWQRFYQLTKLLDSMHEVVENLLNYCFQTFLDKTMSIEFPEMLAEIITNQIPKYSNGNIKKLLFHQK

Glucocorticoid receptor = Glucocorticoid receptor (Homo sapiens, UniProt P04150); assay: as §2
[15] = molecular target: Delta-type opioid receptor (Homo sapiens) (UniProt P41143); assay: Delta2 (h) CEREP screen; conditions: Compound concentration 10.0 uM
Delta-type opioid receptor (Homo sapiens), sequence (P41143 whole entry): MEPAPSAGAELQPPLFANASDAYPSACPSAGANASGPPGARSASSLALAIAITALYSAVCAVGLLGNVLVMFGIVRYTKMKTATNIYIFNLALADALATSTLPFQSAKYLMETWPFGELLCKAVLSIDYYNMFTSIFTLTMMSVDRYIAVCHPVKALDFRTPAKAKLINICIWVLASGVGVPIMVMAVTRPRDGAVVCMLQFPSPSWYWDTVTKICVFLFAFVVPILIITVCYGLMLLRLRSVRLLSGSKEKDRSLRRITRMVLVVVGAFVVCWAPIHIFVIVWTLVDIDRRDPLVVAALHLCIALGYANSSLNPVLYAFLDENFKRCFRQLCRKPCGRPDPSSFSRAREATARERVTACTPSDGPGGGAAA

[16] = molecular target: 5-hydroxytryptamine receptor 5A (Homo sapiens) (UniProt P47898); assay: 5-HT5A (h) CEREP screen
5-hydroxytryptamine receptor 5A (Homo sapiens), sequence (P47898 whole entry): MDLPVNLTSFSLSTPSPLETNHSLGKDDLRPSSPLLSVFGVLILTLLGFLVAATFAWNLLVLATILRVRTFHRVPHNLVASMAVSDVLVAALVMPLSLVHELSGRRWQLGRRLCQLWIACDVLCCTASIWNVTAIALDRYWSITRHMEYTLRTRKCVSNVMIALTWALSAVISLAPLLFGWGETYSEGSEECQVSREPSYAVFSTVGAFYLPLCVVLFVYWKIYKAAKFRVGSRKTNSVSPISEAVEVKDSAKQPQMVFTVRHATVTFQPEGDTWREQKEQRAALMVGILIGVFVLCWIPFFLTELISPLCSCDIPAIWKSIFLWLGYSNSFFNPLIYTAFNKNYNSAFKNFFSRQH

[17] = molecular target: Estrogen receptor beta (Homo sapiens) (UniProt Q92731); assay: ERbeta Indigo Bioscience nuclear receptor screen
Estrogen receptor beta (Homo sapiens), sequence (Q92731 whole entry): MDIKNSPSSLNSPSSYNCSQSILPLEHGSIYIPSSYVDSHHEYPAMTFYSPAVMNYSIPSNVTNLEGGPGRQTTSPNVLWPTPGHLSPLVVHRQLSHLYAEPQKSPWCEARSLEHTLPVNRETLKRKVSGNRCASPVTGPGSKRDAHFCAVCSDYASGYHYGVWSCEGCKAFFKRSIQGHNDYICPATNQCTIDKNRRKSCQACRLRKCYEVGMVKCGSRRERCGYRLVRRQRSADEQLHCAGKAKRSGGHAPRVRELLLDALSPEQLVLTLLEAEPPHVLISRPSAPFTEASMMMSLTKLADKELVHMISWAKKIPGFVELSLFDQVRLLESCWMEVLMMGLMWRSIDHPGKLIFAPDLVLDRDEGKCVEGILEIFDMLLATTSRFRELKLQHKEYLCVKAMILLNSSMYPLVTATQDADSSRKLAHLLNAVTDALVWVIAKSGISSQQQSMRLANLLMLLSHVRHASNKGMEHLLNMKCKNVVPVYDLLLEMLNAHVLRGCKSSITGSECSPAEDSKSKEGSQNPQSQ

[18] = molecular target: T2, Peroxisome proliferator-activated receptor delta (Homo sapiens) (UniProt Q03181); assay: PPARdelta Indigo Bioscience nuclear receptor screen
T2 sequence (whole entry): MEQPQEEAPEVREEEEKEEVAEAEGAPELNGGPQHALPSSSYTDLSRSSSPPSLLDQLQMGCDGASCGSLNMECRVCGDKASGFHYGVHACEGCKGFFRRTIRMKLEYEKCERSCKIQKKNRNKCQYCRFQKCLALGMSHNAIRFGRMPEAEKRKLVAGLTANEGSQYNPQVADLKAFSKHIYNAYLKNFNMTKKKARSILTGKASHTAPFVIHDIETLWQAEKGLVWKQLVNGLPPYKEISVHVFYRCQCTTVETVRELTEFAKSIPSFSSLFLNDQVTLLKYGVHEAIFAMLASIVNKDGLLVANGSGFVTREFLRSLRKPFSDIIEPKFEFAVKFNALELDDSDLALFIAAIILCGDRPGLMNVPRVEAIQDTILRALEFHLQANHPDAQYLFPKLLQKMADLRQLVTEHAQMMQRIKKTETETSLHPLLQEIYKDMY

[19] = molecular target: 5-hydroxytryptamine receptor 1D (Homo sapiens) (UniProt P28221); conditions: Compound concentration 10.0 uM
5-hydroxytryptamine receptor 1D (Homo sapiens), sequence (P28221 whole entry): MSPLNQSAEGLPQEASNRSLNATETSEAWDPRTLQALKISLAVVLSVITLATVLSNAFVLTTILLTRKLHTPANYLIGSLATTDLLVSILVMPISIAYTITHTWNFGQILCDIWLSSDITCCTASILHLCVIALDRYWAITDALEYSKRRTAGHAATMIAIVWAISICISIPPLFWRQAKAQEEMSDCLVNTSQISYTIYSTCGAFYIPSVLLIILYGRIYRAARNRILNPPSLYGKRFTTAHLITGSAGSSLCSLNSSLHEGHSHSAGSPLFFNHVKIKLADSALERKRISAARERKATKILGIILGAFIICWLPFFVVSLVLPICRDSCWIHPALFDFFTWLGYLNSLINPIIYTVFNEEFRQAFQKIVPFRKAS

[20] = molecular target: D(1A) dopamine receptor (Homo sapiens) (UniProt P21728); conditions: Compound concentration 10.0 uM
[21] = molecular target: Delta-type opioid receptor (Homo sapiens) (UniProt P41143); conditions: Compound concentration 10.0 uM
[22] = molecular target: Muscarinic acetylcholine receptor M2 (Homo sapiens) (UniProt P08172); conditions: Compound concentration 10.0 uM
Rattus norvegicus = species on record: Rattus norvegicus; conditions: Compound concentration 10.0 uM
[23] = molecular target: Sigma intracellular receptor 2 (Homo sapiens, UniProt Q5BJF2); conditions: Compound concentration 10.0 uM

In the case of `COc1nc2ccc([C@@](O)(c3ccccc3)C3CCN(C(C)=O)CC3)cc2c(Cl)c1Cc1ccc(-n2cccn2)cc1` [JNJ-54119936], the IC50 [1] is reported as 0.332 µM (active), the inhibition [2] is reported as 6% and the inhibition [3] is reported as -4%. For the same molecule, the inhibition [4] was 3%, the inhibition [5] was 6% and the inhibition [6] was 3%. For the same molecule, the inhibition [7] was 6%, the inhibition [8] was 10% and the inhibition [9] was 3%. It also gave an inhibition [10] of 1%, an inhibition [11] of 11% and an inhibition [12] of 17%. The IC50 [13] was roughly 5 µM, the inhibition [14] was 13% and the IC50 (Glucocorticoid receptor) was roughly 6 µM. The inhibition [15] was 11%, the inhibition ([16]; Compound concentration 1.0 uM) was 13% and the inhibition ([16]; Compound concentration 10.0 uM) was 23%. It also gave an inhibition ([17]; Compound concentration 0.3 uM) of 1.77%, an inhibition ([17]; Compound concentration 1.0 uM) of 7.87% and an inhibition ([17]; Compound concentration 3.0 uM) of 14.8%. For the same molecule, the inhibition ([18]; Compound concentration 0.3 uM) was -3.53%, the inhibition ([18]; Compound concentration 1.0 uM) was -5.27% and the inhibition ([18]; Compound concentration 3.0 uM) was 0.29%. It also gave an inhibition [19] of 5.9%, an inhibition [20] of 19.9% and an inhibition [21] of 7.18%. The inhibition [22] was 1.16%, the inhibition (Rattus norvegicus) was 35.6% and the inhibition [23] was 65.8%.
